Patent US20100041620A1, “METHODS FOR IMPROVING FRONTAL BRAIN BIOENERGETIC METABOLISM” (priority 2008, published 2010)

Assays:
[1] = system: anterior cingulate cortex (ACC); experiment: 31P magnetic resonance spectroscopic imaging (3D-CSI, 4 Tesla) of phosphorus metabolites, anterior cingulate cortex; type: in vivo, human
Description: (§1) ^31P data were collected using a three-dimensional chemical shift imaging (3D-CSI) technique at 4 Tesla in healthy middle-aged individuals. The use of 3D-CSI at high field has several advantages over previous methods: (1) increased spectral dispersion, which allows for increased precision of metabolite quantification; (2) post-processing grid shifting that allows for 3D placement of voxels of interest; and (3) the ability to co-register voxel placement between baseline and post-treatment follow-up. High-energy metabolite peaks quantified in the present study include phosphocreatine (PCr), β-nucleoside triphosphate (NTP, ATP in brain), and inorganic phosphate (Pi). Phospholipid membrane metabolite peaks quantified include anabolites, phosphomonoesters (PME), including phosphoethanolamine (PE) and phosphocholine (PC), and catabolites, phosphodiesters (PDE), including glycerophosphoethanolamine (GPE) and glycerolphosphocholine (GPC). A region of interest approach was used to examine phosphorus metabolite levels in the anterior cingulate cortex (ACC), given the notable age-related decline in frontal brain metabolism and impairment of frontally-mediated cognitive functions. A comparison region placed in the parieto-occipital cortex (POC) was also evaluated. It was hypothesized that oral supplementation with citicoline would improve frontal bioenergetic metabolism via elevations in availability of high-energy phosphates, as well as alteration of membrane phospholipid turnover by providing additional membrane precursors.
(§2) Subjects included sixteen neurologically and psychiatrically healthy adults (mean age=47.3±5.4 years; 8 females, 8 males). Trained research technicians administered a structured clinical psychiatric interview using the Structured Clinical Interview for DSM-IV (SCID). All subjects were free of Axis I diagnoses, neurological illness, severe medical problems, and psychoactive substance use.
(§3) Subjects were randomly assigned to receive a six-week supply of either 500 mg (4 males and 4 females) or 2000 mg (4 males and 4 females) of Cognizin® Citicoline (Kyowa Hakko Kogyo Co., Ltd., JAPAN). Subjects were instructed to take one capsule every day (500 mg group) or four capsules every day in a single dose (2000 mg group) for six weeks. […] Magnetic resonance spectroscopy (MRS) was completed on all subjects in two imaging sessions: one prior to beginning treatment (baseline) and one after completing six weeks of treatment.
(§4) All proton imaging was performed using the proton channel of the dual tuned open face proton-phosphorus TEM whole-head coil from Bioengineering Inc. (Minneapolis, Minn.) operating at a nominal frequency of 170.3 MHz. A 2D gradient-recalled echo imaging sequence (12 seconds duration) was used to acquire a single image in all three spatial dimensions (sagittal, coronal, axial) to quickly determine the patient's position and angle. High-contrast, T1-weighted sagittal, coronal images as well as T1 and T2-weighted transverse images of the entire brain were acquired using a three-dimensional, magnetization-prepared FLASH imaging sequence (3D-MP FLASH), allowing for clear segmentation between grey-matter, white-matter, and CSF, as well as clearly delineating between the different anatomical regions of interest. This approach was used to optimize ^31P-MRSI voxel positioning and volumetric correction in the regions of interest.
(§5) Phosphorus MRSI was performed using the phosphorus channel of the dual tuned proton-phosphorus TEM whole-head coil from Bioengineering Inc. (Minneapolis, Minn.) operating at 68.9 MHz. Phosphorus MRSI data were recorded using a three-dimensional chemical shift imaging (3D-CSI) sequence (Garraux, Neuroimage 10:149-162, 1999). […]

[2] = system: parieto-occipital cortex (POC); experiment: 31P magnetic resonance spectroscopic imaging (3D-CSI, 4 Tesla) of phosphorus metabolites, parieto-occipital cortex comparison region; type: in vivo, human; conditions: 6 weeks oral citicoline, doses pooled, mean ± SD
Description: as §1, §2, §3, §4, §5

[3] = six weeks of citicoline supplementation, decrease
[4] = six weeks of citicoline supplementation, increase

Structure (SMILES): C[N+](C)(C)CCOP(=O)(O)OP(=O)([O-])OC[C@H]1O[C@@H](n2ccc(N)nc2=O)[C@H](O)[C@@H]1O [citicoline, cytidine 5′-diphosphocholine]
- PCr, metabolite ratio relative to the total 31P signal ([1]; 6 weeks oral citicoline, 500 and 2000 mg/day groups pooled, mean ± SD, baseline .154 ± .019, p .02): .162 ± .015
- PCr/Pi ([1]; 6 weeks oral citicoline, doses pooled, mean ± SD, baseline 2.17 ± .46, p .03): 2.82 ± 1.04
- PC, metabolite ratio relative to the total 31P signal ([1]; 6 weeks oral citicoline, doses pooled, mean ± SD, baseline .026 ± .010, p .02): .019 ± .008
- GPE, metabolite ratio relative to the total 31P signal ([1]; 6 weeks oral citicoline, doses pooled, mean ± SD, baseline .039 ± .010, p .01): .030 ± .009
- PE, metabolite ratio relative to the total 31P signal ([1]; 6 weeks oral citicoline, doses pooled, mean ± SD, baseline .043 ± .015, p .04): .054 ± .008
- GPC, metabolite ratio relative to the total 31P signal ([1]; 6 weeks oral citicoline, doses pooled, mean ± SD, baseline .051 ± .015, ns): .047 ± .016
- β-NTP, metabolite ratio relative to the total 31P signal ([1]; 6 weeks oral citicoline, doses pooled, mean ± SD, baseline .066 ± .012, p .05): .075 ± .014
- PME, metabolite ratio relative to the total 31P signal ([1]; 6 weeks oral citicoline, doses pooled, mean ± SD, baseline .069 ± .016, ns): .073 ± .012
- Pi, metabolite ratio relative to the total 31P signal ([1]; 6 weeks oral citicoline, doses pooled, mean ± SD, baseline .073 ± .012, p .15): .065 ± .022
- PDE, metabolite ratio relative to the total 31P signal ([1]; 6 weeks oral citicoline, doses pooled, mean ± SD, baseline .183 ± .032, p .07): .154 ± .049
- decreased GPE, change from baseline [1, 3]: 23%
- decreased PC, change from baseline [1, 3]: 29%
- increased PCr/Pi, change from baseline ([1]; six weeks of citicoline supplementation, doses pooled, increase): 32%
- increased PCr, change from baseline [1, 4]: 7%
- increased PE, change from baseline [1, 4]: 26%
- increased β-NTP, change from baseline [1, 4]: 14%
- Pi, metabolite ratio relative to the total 31P signal ([1]; six weeks, 2000 mg/day group, baseline 0.069±0.010, p=0.57): 0.073±0.019
- PCr/Pi ratio ([1]; six weeks, 2000 mg/day group, baseline 2.41±0.52, p=0.84): 2.33±0.61
- increased PCr/Pi, change from baseline ([1]; six weeks, low dose (500 mg), increase): 66%
- decreased Pi, change from baseline ([1]; six weeks, low dose only (500 mg), decrease): 26%
- PCr/Pi ([2]; baseline 2.30 ± .34, ns): 2.38 ± .53
- PC, metabolite ratio relative to the total 31P signal ([2]; baseline .023 ± .009, ns): .026 ± .012
- GPE, metabolite ratio relative to the total 31P signal ([2]; baseline .034 ± .011, ns): .032 ± .014
- GPC, metabolite ratio relative to the total 31P signal ([2]; baseline .047 ± .017, ns): .047 ± .010
- β-NTP, metabolite ratio relative to the total 31P signal ([2]; baseline .063 ± .009, ns): .066 ± .010
- PE, metabolite ratio relative to the total 31P signal ([2]; baseline .065 ± .009, ns): .058 ± .010
- Pi, metabolite ratio relative to the total 31P signal ([2]; baseline .072 ± .010, ns): .075 ± .013
- PME, metabolite ratio relative to the total 31P signal ([2]; baseline .088 ± .015, ns): .084 ± .011
- PCr, metabolite ratio relative to the total 31P signal ([2]; baseline .164 ± .016, ns): .173 ± .015
- PDE, metabolite ratio relative to the total 31P signal ([2]; baseline .165 ± .029, ns): .152 ± .030
